Experimental data as given in article PMC11513893, “Discovery of Oral Degraders of the ROS1 Fusion Protein with Potent Activity against Secondary Resistance Mutations” (Journal of Medicinal Chemistry, 2024).

Columns and labels:
[1] = system: Ba/F3 CD74-ROS1 non mutant; assay: Antiproliferation assay (Alamar Blue, 72 h); type: cell-based, mouse; details: Ba/F3 cells, cell growth inhibition
Text: (§1) To assess targeted degradation of ROS1 fusion proteins, we first established a mouse pro-B cell line Ba/F3 as a model expressing the CD74-ROS1 oncogene or CD74-ROS1 with clinically observed secondary/tertiary mutations. The Ba/F3 cell line is dependent on interleukin-3 for survival and proliferation. Upon transduction of oncogenic ROS1, Ba/F3 cells become independent of interleukin-3 but dependent on the transduced driver gene.
(§2) Ba/F3 immortalized murine bone marrow–derived pro-B cells were obtained from Creative Biogene (Shirley, NY) and cultured in RPMI supplemented with 10% FBS and IL3 (0.5 ng/mL). Ba/F3 cells expressing ROS1 variants were maintained in RPMI supplemented with 10% FBS and puromycin (0.7 mg/mL). […] Each compound was dissolved in DMSO and serially diluted in RPMI for cell culture experiments.
(§3) To assess the 72 h effect of drug treatment on cell proliferation, 2000 to 3000 cells were plated in replicates of three in 96-well plates. The plates were placed in an incubator at 37 °C, 5% CO2 for 72 h. Following drug treatments, the cells were incubated with the Alamar Blue Assay reagent (BioRad), 5 μL each well for 4 h at 37 °C and 5% CO2. Luminescence was measured on a multiplate reader and analyzed. […] IC50 values were determined using a nonlinear regression model with a sigmoidal dose response in GraphPad. The data were collected based on triplicate experiments, and presented as mean ± SD.
(§4) The resulting virus was used to infect Ba/F3 cells. After retroviral infection, Ba/F3 cells were selected by incubation with puromycin (0.7 mg/mL) for 2 weeks. For Ba/F3 cells infected by the CD74–ROS1 variants, IL3 was withdrawn from the culture medium at least 2 weeks before the experiments.

Ba/F3 ROS1-G2032R = assay: Antiproliferation assay; type: cell-based, mouse; details: Ba/F3 cells, cell growth inhibition, 72 h
Text: as §1, §2, §3, §4

ROS1 = ROS1 degradation in Ba/F3 cells (WES immunoblotting); type: cell-based; details: for DC50: concentration needed to reduce ROS1 protein by 50%, Ba/F3 cells; for Dmax (%) (ROS1): maximal degradation of ROS1 in Ba/F3 cells
Method: Protein levels were analyzed using a WES instrument according to the WES User Guide from ProteinSimple in duplicate experiments. The samples were mixed with the fluorescent 5 master mix (ProteinSimple) and then heated at 95 °C for 5 min. Boiled samples, biotinylated protein ladder, antibody diluent, Streptavidin-HRP, primary antibodies, ProteinSimple horseradish peroxidase conjugated antirabbit or antimouse secondary antibodies, luminol-peroxide, and wash buffer were loaded into the WES plate (Wes 12–230 kDa Prefilled Plates with Split Buffer, ProteinSimple). The plates and capillary cartridges were loaded into the WES instrument, and protein separation, antibody incubation, and imaging were performed according to manufacturer’s instructions. Compass software (ProteinSimple) was used to acquire the data and to generate the virtual blot image reconstruction and chemiluminescence signal intensity electropherograms. […] Protein levels are expressed as the AUC of the peak chemiluminescence intensity. Antibodies against phospho-ROS1(Tyr2274/2334) (E8F5J), ROS1 (D4D6(R)) were obtained from Cell Signaling Technology.

Compound	IC50 ([1]; Mus musculus, BaF3, 72 h)	IC50 (Ba/F3 ROS1-G2032R; Mus musculus, BaF3)	DC50 (ROS1)	Dmax (%) (ROS1) (ROS1)	IC50 [1]	IC50 (Ba/F3 ROS1-G2032R)
Cc1cc(Nc2ncc(Cl)c(Nc3ccccc3S(=O)(=O)C(C)C)n2)c(OC(C)C)cc1C1CCN(C2CCN(CC3CN(c4cccc5c4C(=O)N(C4CCC(=O)NC4=O)C5=O)C3)CC2)CC1 (stereo not shown) [8g, 4-(3-((4-(4-((5-Chloro-4-((2-(isopropylsulfonyl)phenyl)amino)pyrimidin-2-yl)amino)-5-isopropoxy-2-methylphenyl)-[1,4′-bipiperidin]-1′-yl)methyl)azetidin-1-yl)-2-(2,6-dioxopiperidin-3-yl)isoindoline-1,3-dione]	191 ± 60 nM	950 ± 67 nM	155 nM	77%		
COc1cc(N2CCC(N3CCN(C4CN(c5ccc6c(c5)C(=O)N(C5CCC(=O)NC5=O)C6=O)C4)CC3)CC2)ccc1Nc1ncc(Cl)c(Nc2ccccc2P(C)(C)=O)n1 (stereo not shown) [9d, 5-(3-(4-(1-(4-((5-Chloro-4-((2-(dimethylphosphoryl)phenyl)amino)pyrimidin-2-yl)amino)-3-methoxyphenyl)piperidin-4-yl)piperazin-1-yl)azetidin-1-yl)-2-(2,6-dioxopiperidin-3-yl)isoindoline-1,3-dione]	61 ± 5 nM	491 ± 48 nM	75 nM	90%		
Cc1cc(Nc2ncc(Cl)c(Nc3ccccc3S(=O)(=O)C(C)C)n2)c(OC(C)C)cc1C1CCN(C2CCN(CCCNc3cccc4c3C(=O)N(C3CCC(=O)NC3=O)C4=O)CC2)CC1 (stereo not shown) [8e, 4-((3-(4-(4-((5-Chloro-4-((2-(isopropylsulfonyl)phenyl)amino)pyrimidin-2-yl)amino)-5-isopropoxy-2-methylphenyl)-[1,4′-bipiperidin]-1′-yl)propyl)amino)-2-(2,6-dioxopiperidin-3-yl)isoindoline-1,3-dione]	562 ± 61 nM	> 10000 nM	733 nM	28%		
Cc1cc(Nc2ncc(Cl)c(Nc3ccccc3S(=O)(=O)C(C)C)n2)c(OC(C)C)cc1C1CCN(C2CN(C3CN(c4ccc5c(c4)C(=O)N(C4CCC(=O)NC4=O)C5=O)C3)C2)CC1 (stereo not shown) [8o, 5-(3-(4-(4-((5-Chloro-4-((2-(isopropylsulfonyl)phenyl)amino)pyrimidin-2-yl)amino)-5-isopropoxy-2-methylphenyl)piperidin-1-yl)-[1,3′-biazetidin]-1′-yl)-2-(2,6-dioxopiperidin-3-yl)isoindoline-1,3-dione]	116 ± 21 nM	> 10000 nM	122 nM	65%		
Cc1cc(Nc2ncc(Cl)c(Nc3ccccc3S(=O)(=O)C(C)C)n2)c(OC(C)C)cc1C1CCN(C2CN(C3CCN(c4ccc5c(c4)C(=O)N(C4CCC(=O)NC4=O)C5=O)CC3)C2)CC1 (stereo not shown) [8p, 5-(4-(3-(4-(4-((5-Chloro-4-((2-(isopropylsulfonyl)phenyl)amino)pyrimidin-2-yl)amino)-5-isopropoxy-2-methylphenyl)piperidin-1-yl)azetidin-1-yl)piperidin-1-yl)-2-(2,6-dioxopiperidin-3-yl)isoindoline-1,3-dione]	40 ± 6 nM		27 nM	93%		
3-(5-(4-((4-(4-((5-Chloro-4-((2-(dimethylphosphoryl)phenyl)amino)pyrimidin-2-yl)amino)-3-methoxyphenyl)piperazin-1-yl)methyl)piperidin-1-yl)-1-oxoisoindolin-2-yl)piperidine-2,6-dione [9n]			11 nM	93%	9.5 ± 0.5 nM	195 ± 124 nM
COc1cc(C2CCN(C3CCN(CC4CCN(c5ccc6c(c5)C(=O)N(C5CCC(=O)NC5=O)C6=O)CC4)CC3)CC2)ccc1Nc1ncc(Cl)c(Nc2ccccc2P(C)(C)=O)n1 (stereo not shown) [9g, 5-(4-((4-(4-((5-Chloro-4-((2-(dimethylphosphoryl)phenyl)amino)pyrimidin-2-yl)amino)-3-methoxyphenyl)-[1,4′-bipiperidin]-1′-yl)methyl)piperidin-1-yl)-2-(2,6-dioxopiperidin-3-yl)isoindoline-1,3-dione]	7.1 ± 0.9 nM	221 ± 26 nM	11 nM	88%		
C[C@@H](Oc1cc(-c2cnn(C3CCN(CCC4CCN(c5cccc6c5C(=O)N(C5CCC(=O)NC5=O)C6=O)CC4)CC3)c2)cnc1N)c1c(Cl)ccc(F)c1Cl (stereo partly drawn) [7d, 4-(4-(2-(4-(4-(6-Amino-5-((R)-1-(2,6-dichloro-3-fluorophenyl)ethoxy)pyridin-3-yl)-1H-pyrazol-1-yl)piperidin-1-yl)ethyl)piperidin-1-yl)-2-(2,6-dioxopiperidin-3-yl)isoindoline-1,3-dione]	106 ± 29 nM	> 5000 nM	145 nM	78%		
Cc1cc(Nc2ncc(Cl)c(Nc3ccccc3S(=O)(=O)C(C)C)n2)c(OC(C)C)cc1C1CCN(C2CCN(CC3CN(c4ccc5c(c4)C(=O)N(C4CCC(=O)NC4=O)C5=O)C3)CC2)CC1 (stereo not shown) [8n, 5-(3-((4-(4-((5-Chloro-4-((2-(isopropylsulfonyl)phenyl)amino)pyrimidin-2-yl)amino)-5-isopropoxy-2-methylphenyl)-[1,4′-bipiperidin]-1′-yl)methyl)azetidin-1-yl)-2-(2,6-dioxopiperidin-3-yl)isoindoline-1,3-dione]	713 ± 84 nM	1150 ± 466 nM	586 nM	63%		
COc1cc(N2CCN(c3ccc4c(c3)CN(C3CCC(=O)NC3=O)C4=O)CC2)ccc1Nc1ncc(Cl)c(Nc2ccccc2P(C)(C)=O)n1 (stereo not shown) [9l, 3-(5-(4-(4-((5-Chloro-4-((2-(dimethylphosphoryl)phenyl)amino)pyrimidin-2-yl)amino)-3-methoxyphenyl)piperazin-1-yl)-1-oxoisoindolin-2-yl)piperidine-2,6-dione]	6.6 ± 0.4 nM	427 ± 32 nM	8 nM	92%		

Further lines, with some results ahead:

IC50 ([1]; Mus musculus, BaF3, 72 h)	IC50 (Ba/F3 ROS1-G2032R; Mus musculus, BaF3)	DC50 (ROS1)	Compound	Dmax (%) (ROS1) (ROS1)	IC50 [1]	IC50 (Ba/F3 ROS1-G2032R)
15.3 ± 4.5 nM	158 ± 81 nM	20 nM	COc1cc(N2CCC(N3CCN(CC4CN(c5ccc6c(c5)CN(C5CCC(=O)NC5=O)C6=O)C4)CC3)CC2)ccc1Nc1ncc(Cl)c(Nc2ccccc2P(C)(C)=O)n1 (stereo not shown) [9p, 3-(5-(3-((4-(1-(4-((5-Chloro-4-((2-(dimethylphosphoryl)phenyl)amino)pyrimidin-2-yl)amino)-3-methoxyphenyl)piperidin-4-yl)piperazin-1-yl)methyl)azetidin-1-yl)-1-oxoisoindolin-2-yl)piperidine-2,6-dione]	94%		
63 ± 24 nM	> 10000 nM	76 nM	COc1cc(N2CCC(N3CCN(C(=O)C4CCN(c5ccc(NC6CCC(=O)NC6=O)cc5)CC4)CC3)CC2)ccc1Nc1ncc(Cl)c(Nc2ccccc2P(C)(C)=O)n1 (stereo not shown) [9v, 3-((4-(4-(4-(1-(4-((5-Chloro-4-((2-(dimethylphosphoryl)phenyl)amino)pyrimidin-2-yl)amino)-3-methoxyphenyl)piperidin-4-yl)piperazine-1-carbonyl)piperidin-1-yl)phenyl)amino)piperidine-2,6-dione]	42%		
82 ± 9 nM	> 10000 nM	101 nM	COc1cc(N2CCC(N3CCN(C(=O)CC4CCN(c5ccc(NC6CCC(=O)NC6=O)cc5)CC4)CC3)CC2)ccc1Nc1ncc(Cl)c(Nc2ccccc2P(C)(C)=O)n1 (stereo not shown) [9u, 3-((4-(4-(2-(4-(1-(4-((5-Chloro-4-((2-(dimethylphosphoryl)phenyl)amino)pyrimidin-2-yl)amino)-3-methoxyphenyl)piperidin-4-yl)piperazin-1-yl)-2-oxoethyl)piperidin-1-yl)phenyl)amino)piperidine-2,6-dione]	37%		
75 ± 9 nM	> 10000 nM	84 nM	COc1cc(N2CCC(N3CCN(C(=O)CN4CCN(c5ccc(NC6CCC(=O)NC6=O)cc5)CC4)CC3)CC2)ccc1Nc1ncc(Cl)c(Nc2ccccc2P(C)(C)=O)n1 (stereo not shown) [9s, 3-((4-(4-(2-(4-(1-(4-((5-Chloro-4-((2-(dimethylphosphoryl)phenyl)amino)pyrimidin-2-yl)amino)-3-methoxyphenyl)piperidin-4-yl)piperazin-1-yl)-2-oxoethyl)piperazin-1-yl)phenyl)amino)piperidine-2,6-dione]	40%		
